Results on one compound are retold here after patent publication US20070249591A1, “Biaryl Amino Acids and Their Use in Dna Binding Oligomers” (Spirogen Limited, priority 2004, published 2007).

Structures are written as SMILES.

For this test, the system named is MS2 DNA sequence. Kind of test: DNA footprinting study against the MS2 DNA sequence. Type of test: binding, bacteriophage. Particulars: cleavage pattern on electrophoresis gel. The method, then: In order to assess the binding of test compounds to DNA, a footprinting study against the MS2 DNA sequence was carried out. The sequence is as follows:
and is derived from a bacteriophage.
The footprinting technique in the context of DNA allows the determination of binding sites for drugs or biological macromolecules. It relies on the fact that DNA is cleaved relatively non-specifically by free radicals (e.g. hydroxyl radical footprinting) or enzymes (e.g. DNase I footprinting). Thus if DNA is 32p end labelled on one strand (so that it may be observed autoradiographically) and exposed to the cleavage agent for a certain time, then a laddering pattern may be seen when the resulting fragments are separated by gel electrophoresis (separation on the basis of size). If a compound which binds to DNA is added prior to the cleavage agent then this hinders access of the enzyme or radical to the DNA and blocks cleavage at the molecule binding site. Thus if the compound binds discretely then a specific cleavage block should be seen on the gel relative to the DNA not treated with compound, which is termed the ‘footprint’. (see FIG. 1)

`CCOC(=O)c1csc(-c2ccc(NC(=O)c3csc(-c4ccc(NC(=O)CCCN(C)C)cc4)n3)cc2)n1` [Compound 9, Ethyl 2-[4-({2-[4-(4-dimethylaminobutyrylamino)phenyl]thiazole-4-carbonyl}amino)phenyl]thiazole-4-carboxylate]: the coating event entry is given as “no clear coating event” and the specific footprinting activity result is “no specific footprinting activity”.
